{"source": "patent US20250339569A1", "about": "“CARBONIC ANHYDRASE IX LIGANDS” (priority 2021, published 2025)", "key": {"[1]": {"experiment": "Plasma stability assay, mouse plasma", "conditions": "mouse plasma, 37°C, 24 h"}, "[2]": {"experiment": "Plasma stability assay, human plasma", "conditions": "37°C"}, "[3]": {"conditions": "dog, in vivo"}, "mouse CAIX": {"biological_target": "T1, mouse CAIX (Mus musculus, UniProt Q8VHB5)", "T1 construct": "host or cells: CHO-VGT / CHO cells", "T1 sequence (Q8VHB5 32-437)": "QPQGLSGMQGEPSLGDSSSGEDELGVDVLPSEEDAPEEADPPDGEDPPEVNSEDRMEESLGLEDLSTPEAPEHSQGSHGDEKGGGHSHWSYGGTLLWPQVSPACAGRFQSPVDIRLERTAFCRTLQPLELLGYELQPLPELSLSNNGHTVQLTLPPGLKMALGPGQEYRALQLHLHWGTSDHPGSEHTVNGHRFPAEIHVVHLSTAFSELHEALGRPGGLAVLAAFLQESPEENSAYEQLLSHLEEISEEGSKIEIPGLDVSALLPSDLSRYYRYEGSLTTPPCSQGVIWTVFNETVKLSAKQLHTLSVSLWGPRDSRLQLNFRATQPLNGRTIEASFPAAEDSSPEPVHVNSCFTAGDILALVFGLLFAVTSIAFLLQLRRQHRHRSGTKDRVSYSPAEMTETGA", "experiment": "Radioligand saturation binding on CHO-msCAIX", "conditions": "CHO-msCAIX, single experiment", "method": "(§1) After attainment of equilibrium, the cells were harvested, and the bound fraction of the compounds was measured. The resulting saturation binding data were analyzed using Graph Pad Prism 8.3.\n(§2) CHO cells transfected with human, dog, and mouse CAIX (CHO-huCA9 T04J-1/20 K1, CHO-dogCA9 T05J-9/20 K4, CHO-murCA9 T05J-3/20 K4) were obtained from InSCREENex (Germany).\n(§3) A molar excess of 3BP-3565 was used as a blocking peptide to assess non-specific binding in autoradiographic studies. 3BP-3565 binds with a similar affinity to CAIX and blocks binding sites of test compounds. For the blocking solution, a 10 mM stock solution of 3BP-3565 was prepared by dissolution in DMSO.\n(§4) CHO cells were maintained in Ham's medium supplemented with 10% fetal bovine serum, 2 mM L-glutamine, 100 U/mL Penicillin and 0.1 mg/mL streptomycin under standard cell culture conditions. The cells were grown in uncoated cell culture flasks (150 cm^2, Biochrom) to subconfluence and then split 1:2-1:3. Approximately 24 hours before the assay, cells were detached by incubation with Accutase and carefully tapping the flasks. Detached cells were resuspended in medium and collected by centrifugation (300 g, 5 min, RT). Cell pellets were resuspended in cell culture medium and counted using a particle counter (CASY Model TT, Scharfe Systems, Germany). Cell concentrations were adjusted to 3×10^5 mL^−1, and 1.000 μL per well of the suspension were dispensed into poly-D-lysine-coated flat-clear-bottom 24 well plates.\n(§5) Compound radiolabeling was performed as follows. […] Then, 25 mg/mL methionine in 1 M sodium acetate buffer pH 5 was added at a final concentration of 0.1 M sodium acetate. Subsequently, the mixture was heated to 80° C. for 25 min, followed by cooling for 5 minutes. Finally, 20 μL of 200 mg/mL ascorbic acid solution, 2.5 μL of 5 mg/mL DTPA and 2.5 μL of 5% TWEEN-20 per 100 μL reaction mixture were added, resulting in the concentrated study solution. For quality control, an aliquot of the labeling solution was diluted 1:40 with 0.1% TWEEN-20 in 0.1 M sodium acetate buffer pH 5. Five microliters of the diluted labeling solution were injected onto a Poroshell SB-C18 2.1×50 mm, 2.7 μm column. HPLC analysis was performed as follows: Gradient A: H2O, 0.1% TFA, Gradient B: Acetonitrile (MeCN), gradient from 5% B to 70% B within 15 min, flow rate of 0.5 mL/min; detector: NaI, DAD 215 nm. The peak eluting with the dead volume represents free radionuclide, the peak eluting with the ligand-specific retention time as determined with a non-labeled sample represents the radiolabeled compound.\nThe radioligand saturation binding on CHO-msCAIX was determined as follows. […] Their associated radioactivity was counted using a gamma counter and normalized to the measured protein concentration of each well. […]"}, "human CAIX": {"biological_target": "human CAIX (Homo sapiens, UniProt Q16790)", "experiment": "Radioligand saturation binding and equilibration on CHO-huCAIX", "parameters": "host or cells: CHO-VGT / CHO cells", "method": "as §1, §2, §3, §4, §5\nThe assessment of the time needed until attainment of equilibration on CHO-huCAIX and CHO-dgCAIX was performed as follows. The 10 mM 3BP-3565 stock solution was diluted with assay medium (Ham's medium without additives) to prepare an 8-μM blocking working solution. The radiolabeling mixtures were diluted with assay medium to prepare 160 nM radioligand working solutions. Subsequently, 1.6 and 3.2 nM radioligand dilutions were prepared by diluting the radioligand working solutions 1:100 and 1:50, respectively, with assay medium. Approximately 24 hours after re-seeding (3×10^5 mL^−1 cells per well), the medium was aspirated, and the cells were washed once with assay medium (700 μL). To determine total binding, 700 μL of binding medium and 100 μL of the radioligand dilutions were added to the wells in triplicates.\nTo determine non-specific binding, 600 μL of binding medium, 100 μL of the […] 3BP-3565 blocking solution and 100 μL of the radioligand dilutions were added to the wells in triplicates. The plates were incubated for 1 h, 3 h, 6 h, and 8 h at 37° C. under standard cell culture conditions (5% CO2). At the end of the incubation time, the plates were placed on ice while aspirating the radioligand solutions. Subsequently, the cells were washed with ice-cold PBS (0.5 mL, 1 mL, 1 mL). […]"}, "[4]": {"experiment": "Biodistribution study (SPECT/CT) in SK-RC-52 tumor-bearing mice with or without gelofusine", "type": "in vivo, NMRI nude mice", "conditions": "female, NMRI nude, mouse, in vivo, iv, total radioactivity, peak tumor uptake, typical (conclusion)", "method": "The effect on tumor uptake of prior injection of gelofusine for kidney protection was investigated in mice bearing the SK-RC-52 tumor. Biodistribution was evaluated using in vivo SPECT/CT imaging. Prior to the in vivo study the compounds (ligands) were initially radiolabeled with In-111 and the stability of radiolabeled compounds was evaluated in buffer at three different timepoints.\nThe study was performed in female NMRI nude mice (approximately 6 weeks of age) from Janvier Labs, France, housed up to 5 mice per cage.\nThe column was washed with 2 mL water, and then the final product was eluted from the column in EtOH solution (50%) • The sample was formulated in PBS to the final concentration of 150 MBq/mL and 5 nmol/mL.\nSK-RC-52 cells were cultured in RPMI 1640 with GlutaMax-I (Thermo Fisher Scientific #61870044) supplemented with 10% fetal bovine serum+1% penicillin/streptomycin, harvested, washed twice in RPMI 1640 and resuspended at 2×10^7 cells/mL in RPMI 1640. HT-29 cells were cultured in McCoy's 5a Medium Modified (Sigma #M9309). For inoculation of HT-29 cells, cells were harvested, washed twice in PBS and resuspended at 5×10^7 cells/mL in PBS. Cells were kept on ice until inoculation.\nAnimals were anaesthetized (isoflurane, 2-4% in ambient air supplemented with 100% 02) prior to tumor inoculation. The tumor cells (100 μL suspension of either SK-RC-52 cells (2×10^6 cells/animal) or HT-29 cells (5×10^6 cells/animal)) were subcutaneously inoculated in the right flank using a 1-mL syringe equipped with a 27 G needle. Tumor growth and animal weight were measured twice per week. Tumor size was measured by caliper and the volume was estimated using the following formula: 0.52×(length×width^2). When tumor sizes reached 150-250 mm^3, animals were randomized into groups (n=3) of similar average tumor volume and body weight.\nAnimals were injected intravenously with In-111-labeled compounds (single bolus, 22.3-31.2 MBq, ˜1 nmol ligand, injection volume: 100 μL) in the lateral tail vein using a 29 G syringe.\nCT was performed with helical scan, 300 ms exposure, reconstruction resolution of 250 μm. SPECT was performed with multi-pinhole scan and a 30 s frame time. For the quantification of the radioactivity uptake, regions of interests (ROIs) were drawn over the tumor, kidney, liver, and heart (estimate of blood) identified on the images. Uptake was expressed as percent of injected dose per gram tissue (% ID/g)."}, "[5]": {"system": "SK-RC-52 (ccRCC) human cancer cell line xenograft", "experiment": "In vivo efficacy, biodistribution and tolerability of 225Ac-DPI-4452 in SK-RC-52 xenograft mouse model", "parameters": "species or system NMRI nude mice", "conditions": "SK-RC-52 model"}, "[6]": {"experiment": "In vivo efficacy, biodistribution and tolerability of 225Ac-DPI-4452 in SK-RC-52 xenograft mouse model", "parameters": "species or system NMRI nude mice", "conditions": "female, NMRI nude, mouse, iv, total radioactivity, SK-RC-52 model, 15 kBq, 4 hours after dosing"}, "[7]": {"experiment": "In vivo efficacy, biodistribution and tolerability of 225Ac-DPI-4452 in HT-29 xenograft mouse model", "parameters": "species or system NMRI nude mice", "conditions": "female, NMRI nude, mouse, iv, total radioactivity, HT-29 model, 15 kBq, 4 hours after dosing"}, "[8]": {"system": "HT-29 (CRC) human cancer cell line xenograft", "experiment": "In vivo efficacy, biodistribution and tolerability of 225Ac-DPI-4452 in HT-29 xenograft mouse model", "parameters": "species or system NMRI nude mice", "conditions": "HT-29 model"}, "[9]": {"conditions": "colon, small intestine and stomach"}, "[10]": {"conditions": "kidney, read-out: kidney uptake"}}, "note": "Where two headings read alike, the source gives them in different places."}
{"compound": "CC(C)C[C@@H]1NC(=O)[C@H](Cc2cccc(NC(=O)CCCS(N)(=O)=O)c2)NC(=O)[C@H](CC(=O)O)NC(=O)[C@H]2CCCN2C(=O)[C@H](CCC(=O)O)NC(=O)[C@@H](NC(=O)[C@H](CCC(N)=O)NC(=O)CN2CCN(C(=O)CN3CCN(CC(=O)O)CCN(CC(=O)O)CCN(CC(=O)O)CC3)CC2)CSCc2cccc(c2)CSC[C@@H](C(N)=O)NC(=O)[C@H](CO)NC(=O)[C@H](Cc2c[nH]c3ccccc23)NC(=O)[C@H]([C@@H](C)O)NC1=O", "note": "(natLu complex, metal not drawn) [3BP-4555]", "values": [{"measurement": "% intact compound remaining (incubation time)", "setting": "[1]", "value": ">95", "unit": "%"}, {"measurement": "% intact compound remaining after 24 h incubation", "setting": "[2]", "value": ">95", "unit": "%"}]}
{"compound": "CC(C)C[C@@H]1NC(=O)[C@H](Cc2ccc(NC(=O)CCS(N)(=O)=O)cc2)NC(=O)[C@H](CC(=O)O)NC(=O)[C@H]2CCCN2C(=O)[C@H](CCC(=O)O)NC(=O)[C@@H](NC(=O)[C@H](CCC(N)=O)NC(=O)CN2CCN(CC(=O)O)CCN(CC(=O)O)CCN(CC(=O)O)CC2)CSCc2cccc(c2)CSC[C@@H](C(N)=O)NC(=O)[C@H](CO)NC(=O)[C@H](Cc2c[nH]c3ccccc23)NC(=O)[C@H]([C@@H](C)O)NC1=O", "note": "[[^111In]In-DPI-4501, metal not drawn]", "values": [{"measurement": "half-life", "setting": "[3]", "value": 68.9, "unit": "min"}, {"measurement": "half-life", "setting": "[3]; iv", "value": 5.88, "unit": "min"}, {"measurement": "Mean pKd ± SD", "setting": "mouse CAIX", "value": 7.9}, {"measurement": "Kd", "setting": "mouse CAIX; read-out: pKd (converted)", "value": 12.6, "unit": "nM"}, {"measurement": "koff", "setting": "human CAIX; CHO-huCAIX", "value": 0.00012, "unit": "s⁻¹"}, {"measurement": "Kd", "setting": "human CAIX; CHO-huCAIX, first independent experiment, read-out: pKd (converted)", "value": 0.158, "unit": "nM"}, {"measurement": "Kd", "setting": "human CAIX; CHO-huCAIX, read-out: Mean pKd ± SD (converted)", "value": 0.251, "unit": "nM"}, {"measurement": "Kd", "setting": "human CAIX; CHO-huCAIX, second independent experiment, read-out: pKd (converted)", "value": 0.398, "unit": "nM"}, {"measurement": "Kd", "setting": "human CAIX; human CAIX expressed in CHO cells, 8 h at 37°C, read-out: pKd (converted)", "value": "≤ 1", "unit": "nM"}, {"measurement": "tissue uptake", "setting": "[4]", "value": 7, "unit": "%ID/g"}]}
{"compound": "CC(C)C[C@@H]1NC(=O)[C@H](Cc2cccc(NC(=O)CCCS(N)(=O)=O)c2)NC(=O)[C@H](CC(=O)O)NC(=O)[C@H]2CCCN2C(=O)[C@H](CCC(=O)O)NC(=O)[C@@H](NC(=O)[C@H](CCC(N)=O)NC(=O)CN2CCN(C(=O)CN3CCN(CC(=O)O)CCN(CC(=O)O)CCN(CC(=O)O)CC3)CC2)CSCc2cccc(c2)CSC[C@@H](C(N)=O)NC(=O)[C@H](CO)NC(=O)[C@H](Cc2c[nH]c3ccccc23)NC(=O)[C@H]([C@@H](C)O)NC1=O", "note": "[^225Ac-DPI-4452, metal not drawn]", "values": [{"measurement": "creatinine values versus vehicle", "setting": "[5]; 135 kBq, day 14", "value": "slightly elevated"}, {"measurement": "tolerability of treatment", "setting": "[5]; single 15, 45 or 135 kBq i.v.", "value": "well tolerated"}, {"measurement": "tissue uptake at 4 h", "setting": "[6]; SK-RC-52 tumor, ex vivo gamma counter, read-out: tumor uptake", "value": "39.1 ± 1.6", "unit": "%ID/g"}, {"measurement": "tissue uptake at 4 h", "setting": "[6]; [9]", "value": "< 1.1", "unit": "%ID/g"}, {"measurement": "tissue uptake at 4 h", "setting": "[6]; [10]", "value": "4.9 ± 0.2", "unit": "%ID/g"}, {"measurement": "tissue uptake at 4 h", "setting": "[7]; HT-29 tumor, ex vivo gamma counter, read-out: tumor uptake", "value": "11.3 ± 1.3", "unit": "%ID/g"}, {"measurement": "tissue uptake at 4 h", "setting": "[7]; [9]", "value": "< 1.1", "unit": "%ID/g"}, {"measurement": "tissue uptake at 4 h", "setting": "[7]; [10]", "value": "7.9 ± 1.3", "unit": "%ID/g"}, {"measurement": "creatinine values versus vehicle", "setting": "[8]; 135 kBq, day 14", "value": "slightly elevated"}, {"measurement": "tolerability of treatment", "setting": "[8]; single 15, 45 or 135 kBq i.v.", "value": "well tolerated"}]}
